Measured values taken from ChEMBL document CHEMBL1132673, “Preparation and immunosuppressive activity of 32-(O)-acylated and 32-(O)-thioacylated analogues of ascomycin” (1999).

Legend:
[1] = In vitro immunosuppressive activity measured in the interleukin-2 receptor gene assay (IL-2 RGA) in mitogen-stimulated human T-cell line; relative to FK506
[2] = molecular target: Peptidyl-prolyl cis-trans isomerase FKBP1A (Homo sapiens) (UniProt P62942); assay: Immunosuppressive activity in FK506 binding protein 12 binding assay as inhibitory concentration (rIC50) relative to FK506 IC50 (1.2 nM)
Peptidyl-prolyl cis-trans isomerase FKBP1A (Homo sapiens), sequence (P62942 whole entry): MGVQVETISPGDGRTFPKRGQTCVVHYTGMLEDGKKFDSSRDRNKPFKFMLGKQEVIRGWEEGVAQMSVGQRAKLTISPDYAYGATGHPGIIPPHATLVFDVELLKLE

[3] = organism: Mus musculus; assay: In vitro immunosuppressive activity measured in the mouse mixed lymphocyte reaction (MLR) expressed as relative inhibitory concentration (rIC50) relative to FK506 IC50 (0.3 nM); type: functional

Compound | rIC50 [1] | rIC50 [2] | rIC50 [3]
CC[C@@H]1/C=C(\C)C[C@H](C)C[C@H](OC)[C@H]2O[C@@](O)(C(=O)C(=O)N3CCCC[C@H]3C(=O)O[C@H](/C(C)=C/[C@@H]3CC[C@@H](OC(=S)NC(=O)c4ccc(C(=O)OC)cc4)[C@H](OC)C3)[C@H](C)[C@@H](O)CC1=O)[C@H](C)C[C@@H]2OC | 9 | 7.3 | 8.4
CC[C@@H]1/C=C(\C)C[C@H](C)C[C@H](OC)[C@H]2O[C@@](O)(C(=O)C(=O)N3CCCC[C@H]3C(=O)O[C@H](/C(C)=C/[C@@H]3CC[C@@H](OC(=S)NC(=O)CCC(=O)OC)[C@H](OC)C3)[C@H](C)[C@@H](O)CC1=O)[C@H](C)C[C@@H]2OC | 4.6 | 1.6 | 19
C=CC[C@@H]1/C=C(\C)C[C@H](C)C[C@H](OC)[C@H]2O[C@@](O)(C(=O)C(=O)N3CCCC[C@H]3C(=O)O[C@H](/C(C)=C/[C@@H]3CC[C@@H](O)[C@H](OC)C3)[C@H](C)[C@@H](O)CC1=O)[C@H](C)C[C@@H]2OC [TACROLIMUS ANHYDROUS] | 1 | 1 | 1
CC[C@@H]1/C=C(\C)C[C@H](C)C[C@H](OC)[C@H]2O[C@@](O)(C(=O)C(=O)N3CCCC[C@H]3C(=O)O[C@H](/C(C)=C/[C@@H]3CC[C@@H](OC(=O)NNc4ccccc4)[C@H](OC)C3)[C@H](C)[C@@H](O)CC1=O)[C@H](C)C[C@@H]2OC | 0.7 | 1.5 | 2.5
CC[C@@H]1/C=C(\C)C[C@H](C)C[C@H](OC)[C@H]2O[C@@](O)(C(=O)C(=O)N3CCCC[C@H]3C(=O)O[C@H](/C(C)=C/[C@@H]3CC[C@@H](OC(=S)NC(=O)c4ccc5ccccc5c4)[C@H](OC)C3)[C@H](C)[C@@H](O)CC1=O)[C@H](C)C[C@@H]2OC | 6.5 | 6.6 | 15
CC[C@@H]1/C=C(\C)C[C@H](C)C[C@H](OC)[C@H]2O[C@@](O)(C(=O)C(=O)N3CCCC[C@H]3C(=O)O[C@H](/C(C)=C/[C@@H]3CC[C@@H](OC(=O)NC(=O)c4ccccc4)[C@H](OC)C3)[C@H](C)[C@@H](O)CC1=O)[C@H](C)C[C@@H]2OC | 1.2 | 1.3 | 2.9
CC[C@@H]1/C=C(\C)C[C@H](C)C[C@H](OC)[C@H]2O[C@@](O)(C(=O)C(=O)N3CCCC[C@H]3C(=O)O[C@H](/C(C)=C/[C@@H]3CC[C@@H](O)[C@H](OC)C3)[C@H](C)[C@@H](O)CC1=O)[C@H](C)C[C@@H]2OC [ASCOMYCIN] | 1.7 | 0.9 | 1.9
CC[C@@H]1/C=C(\C)C[C@H](C)C[C@H](OC)[C@H]2O[C@@](O)(C(=O)C(=O)N3CCCC[C@H]3C(=O)O[C@H](/C(C)=C/[C@@H]3CC[C@@H](OC(=S)NC(=O)c4ccco4)[C@H](OC)C3)[C@H](C)[C@@H](O)CC1=O)[C@H](C)C[C@@H]2OC | 3.5 | 3.4 | 7.6
CC[C@@H]1/C=C(\C)C[C@H](C)C[C@H](OC)[C@H]2O[C@@](O)(C(=O)C(=O)N3CCCC[C@H]3C(=O)O[C@H](/C(C)=C/[C@@H]3CC[C@@H](OC(=S)NC(=O)C[C@@H]4OC(C)(C)OC4=O)[C@H](OC)C3)[C@H](C)[C@@H](O)CC1=O)[C@H](C)C[C@@H]2OC | 12 | 0.9 | 12
CC[C@@H]1/C=C(\C)C[C@H](C)C[C@H](OC)[C@H]2O[C@@](O)(C(=O)C(=O)N3CCCC[C@H]3C(=O)O[C@H](/C(C)=C/[C@@H]3CC[C@@H](OC(=S)N(C)C(=O)CCC(=O)OC)[C@H](OC)C3)[C@H](C)[C@@H](O)CC1=O)[C@H](C)C[C@@H]2OC | 6.9 | 2.7 | 36
CC[C@@H]1/C=C(\C)C[C@H](C)C[C@H](OC)[C@H]2O[C@@](O)(C(=O)C(=O)N3CCCC[C@H]3C(=O)O[C@H](/C(C)=C/[C@@H]3CC[C@@H](OC(=S)NC(=O)c4ccccc4)[C@H](OC)C3)[C@H](C)[C@@H](O)CC1=O)[C@H](C)C[C@@H]2OC | 3.4 | 6.3 | 11
